From patent US12357612B2, “Prophylactic or therapeutic agent for cancer” (TOHOKU UNIVERSITY, priority 2019, dated 2025)

Tests used:
[1] = system: model mice of colorectal cancer (AOM/DSS); assay: Model mice of colorectal cancer (AOM/DSS), oral administration; type: in vivo, ICR mice; conditions: for ratio of tumor area in the colon / number of tumors having a diameter of more than 2 mm / tumor area in the colon: versus placebo group; for ratio of tumor area in the colon: FIG. 2A; for number of tumors having a diameter of more than 2 mm: FIG. 2B; for colon length: shortening in placebo group versus control group, FIG. 1B; for tumor area in the colon: FIG. 1A
Description: Model mice of colorectal cancer were prepared using azoxymethane (AOM; manufactured by Wako Pure Chemical Industries, Ltd.) and dextran sulfate sodium (DSS, manufactured by MP Biomedicals). Specifically, 5-week-old male ICR mice (produced by CLEA Japan) were first acclimated and bred for 1 week. At 6 weeks of age, the mice were randomly divided in a control group and 5 colorectal cancer groups (placebo group, Present Compound #1[1] group, Present Compound #1[10] group, Present Compound #2[1] group, and Present Compound #2[10] group), and 10 (mg/kg body weight) of AOM was intraperitoneally administered to the colorectal cancer groups. Seven days later, the mice were allowed to freely drink 2.5% (w/v) DSS for 1 week, and then tap water for 14 days. This administration of DSS was performed for […] to prepare model mice of colorectal cancer. When the above AOM was intraperitoneally administered (that is, at 6 weeks of age), physiological saline solutions containing 1 (mg/kg body weight/day) and 10 (mg/kg body weight/day) of the Present Compound #1 were orally administered for 70 consecutive days thereafter to the Present Compound #1(1) group and the Present Compound #1(10) group, respectively, physiological saline solutions containing 1 (mg/kg body weight/day) and 10 (mg/kg body weight/day) of the Present Compound #2 were orally administered for 70 consecutive days thereafter to the Present Compound #2(1) group and the Present Compound #2(10) group, respectively, and a physiological saline solution was orally administered for 70 consecutive days thereafter to the placebo group. In addition, to the control group, a physiological saline solution was orally administered at 6 weeks of age for 70 consecutive days thereafter. All mice were sacrificed and the colons were harvested immediately after the end of the third cycle. The colons were photographed in full length and the colon length (see FIG. 1B), as well as the tumor area in the colon (see FIG. 1A), the ratio of tumor area in the colon (see FIG. 2A), and the number of tumors having a diameter of more than 2 mm (see FIG. 2B) were measured. Note that, for the tumors, the elevated lesions that were thought to contain cancer were visually observed in the colon (large intestine), and the area of these elevated lesions (that is, the tumors) and the total colon area were calculated by NIH Image J version 1.51 (US National Institutes of Health, MD, http://imagej.nih.gov/ij/index.html). The ratio of tumor area in the colon was calculated based on the formula “(elevated lesion area/total colon area)×100”.
Student's t-test was used for the comparison between two groups, and Dunnet's test or Tukey's test was used for the comparison between three groups. The survival rate (see FIG. 3) was evaluated by a log-rank test using the Kaplan-Meier survival curve. JMP version 14 (manufactured by SAS Institute) was used for statistical analysis. For all test results, p-values less than 0.05 were considered statistically significant.

[2] = system: colorectal cancer cell line HCT116; assay: Cell migration test; type: cell-based, human; conditions: 50 μM, 48 hours, HCT116, 20% FBS as attractant; versus absence of compound; FIG. 4
Description: Cells of the human colorectal cancer cell line HCT116 (obtained from ATCC) were cultured and maintained in a DMEM (Dulbecco's Modified Eagle Medium) culture solution (manufactured by Sigma-Aldrich) containing 10% fetal bovine serum (FBS) (manufactured by Biowest) and 1% penicillin-streptomycin (manufactured by Thermo Fisher Science) under the conditions of 5% CO2/20% O2 and 37° C.
7.5×10^4 cells of the colorectal cancer cell line HCT116 were seeded in each well of the Corning Fluoroblok 24-Multiwell Insert Systems (pore size: 8.0 μm) (manufactured by Corning), and cultured for 48 hours in FBS-free DMEM culture solution or FBS-free DMEM culture solution containing 50 μM of the Present Compound #2. Note that a DMEM culture solution containing 20% FBS, which is an attractant, was added to the chamber at the bottom of the plate. The migrating cells that had passed through the membrane on the lower surface of the cell culture insert were stained using a Diff-Quik kit (manufactured by Sysmex), the membrane was air-dried, and then the number of cells was measured in three fields of view using a phase-contrast microscope.
Student's t-test was used for the comparison between two groups, and Dunnet's test or Tukey's test was used for the comparison between three groups. The survival rate (see FIG. 3) was evaluated by a log-rank test using the Kaplan-Meier survival curve. […]

[3] = 1 mg/kg body weight/day orally for 70 consecutive days
[4] = 10 mg/kg body weight/day orally for 70 consecutive days

| Compound | ratio of tumor area in the colon [1, 3] | number of tumors having a diameter of more than 2 mm [1, 3] | colon length [1, 4] | tumor area in the colon [1, 4] | ratio of tumor area in the colon [1, 4] | number of tumors having a diameter of more than 2 mm [1, 4] | cell migration level [2] | colon length [1, 3] | tumor area in the colon [1, 3] | survival ([1]; 10 mg/kg body weight/day orally, 4 out of 8 mice died in the placebo group, FIG. 3) |
| --- | --- | --- | --- | --- | --- | --- | --- | --- | --- | --- |
| O=C(CC(C(=O)O)c1c[nH]c2ccccc12)c1ccc(F)cc1F (centres unmarked) [Present Compound #1, 4-(2,4-difluorophenyl)-2-(1H-indole-3-yl)-4-oxo-butanoic acid] | smaller | smaller | shortening was suppressed | smaller | smaller | smaller | – | – | – | – |
| COc1cc(COc2ccc3[nH]cc(CC(=O)O)c3c2)cc(OC)c1 [Present Compound #2, 5-(3,5-dimethoxybenzyloxy)-3-indoleacetic acid] | – | – | shortening was suppressed | smaller | smaller | smaller | lower | shortening was suppressed | smaller | all 8 mice survived |
